Experimental data reported in patent US20240207300A1, “COMBINATION THERAPIES INCLUDING MYT1 INHIBITORS” (Repare Therapeutics Inc., priority 2021, published 2024).

The compounds below were run against recombinant human Myt1 (Homo sapiens (Human), UniProt Q99640) (assay: Recombinant human Myt1 kinase ADP-Glo enzymatic assay). Conditions: recombinant human Myt1 18 nM, ATP 10 μM.
Type: biochemical
Description: Detection of Myt1 kinase activity utilized a recombinant human Myt1 kinase assay measuring the hydrolysis of ATP using a commercially available ADP-Glo Assay (ADP-Glo™ Kinase Assay from Promega, 10 000 assays, #V9102). […] After this, 5 μL of compounds (diluted in reaction buffer to 0.5% DMSO) was added to the microplate and the plate was spun briefly and incubated at 22° C. for 15 minutes. Ultra-Pure Adenosine Triphosphate (ATP) solution (ADP-Glo kit from Promega) was diluted in reaction buffer and 5 μL was added to the microplate, spun down briefly and incubated for 60 minutes at 30° C. […] After the 60-minute incubation, 15 μL of ADP-Glo reagent was added and the plate was spun briefly and sealed and incubated in the dark for 40 minutes at 22° C. […] Luminescence was read using the Envision (250 ms integration). The IC50 and the % max inhibition were calculated for each inhibitor compound tested.

Sequence of recombinant human Myt1 (Q99640 whole entry): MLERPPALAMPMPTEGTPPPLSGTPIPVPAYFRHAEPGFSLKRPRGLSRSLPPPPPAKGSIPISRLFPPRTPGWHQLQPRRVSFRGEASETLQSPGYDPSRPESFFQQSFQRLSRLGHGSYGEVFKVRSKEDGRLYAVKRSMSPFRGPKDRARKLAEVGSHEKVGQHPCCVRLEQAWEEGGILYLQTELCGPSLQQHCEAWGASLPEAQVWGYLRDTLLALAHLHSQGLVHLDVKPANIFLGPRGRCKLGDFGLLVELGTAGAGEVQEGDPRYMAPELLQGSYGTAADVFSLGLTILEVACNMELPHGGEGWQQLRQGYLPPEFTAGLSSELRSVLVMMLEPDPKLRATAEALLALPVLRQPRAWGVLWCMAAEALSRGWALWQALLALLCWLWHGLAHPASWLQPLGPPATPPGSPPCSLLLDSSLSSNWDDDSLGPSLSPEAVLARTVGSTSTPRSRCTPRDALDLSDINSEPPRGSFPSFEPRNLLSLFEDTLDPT

Point of comparison: `Cc1ccc(O)c(C)c1-n1c(N)c(C(N)=O)c2ncc(C#CC(C)O)nc21` (centres unmarked) [Compound 241], IC50 0.024 µM. Against it:
- Cc1ccc(O)c(Cl)c1-n1c(N)c(C(N)=O)c2cc(Cl)cnc21 [Compound 327] — lower, < 0.01 µM
- Cc1ccc(O)c(C)c1-n1c(N)c(C(N)=O)c2nc(-c3cnccn3)cnc21 [Compound 38] — lower, < 0.01 µM
- Cc1ccc(O)c(Cl)c1-n1c(N)c(C(N)=O)c2nc(C3CC3)cnc21 [Compound 104] — lower, < 0.01 µM
- Cc1ccc(-c2cnc3c(n2)c(C(N)=O)c(N)n3-c2c(C)ccc(O)c2C)nc1 [Compound 61] — lower, < 0.01 µM
- Cc1ccc(O)c(C)c1-n1c(N)c(C(N)=O)c2nc(-c3nccs3)c(C)nc21 [Compound 31, 6-amino-5-(3-hydroxy-2,6-dimethyl-phenyl)-3-methyl-2-thiazol-2-yl-pyrrolo[2,3-b]pyrazine-7-carboxamide] — lower, < 0.01 µM
- Cc1ccc(O)c(C)c1-n1c(N)c(C(N)=O)c2nc(C3CCC3)cnc21 [Compound 173, 6-amino-2-cyclobutyl-5-(3-hydroxy-2,6-dimethyl-phenyl)pyrrolo[2,3-b]pyrazine-7-carboxamide] — lower, < 0.01 µM
- Cc1ccc(O)c(C)c1-n1c(N)c(C(N)=O)c2nc(C3CCCCC3)cnc21 [Compound 83] — lower, < 0.01 µM
- Cc1ccc(O)c(C)c1-n1c(N)c(C(N)=O)c2nc(-c3c[nH]cn3)cnc21 [Compound 65] — lower, < 0.01 µM
- Cc1ccc(O)c(C)c1-n1c(N)c(C(N)=O)c2nc(-c3ccncn3)cnc21 [Compound 57] — lower, < 0.01 µM
- Cc1ccc(O)c(C)c1-n1c(N)c(C(N)=O)c2cc(Br)c(C)nc21 (single isomer, unassigned) [Compound 188] — lower, < 0.01 µM
- Cc1ccc(O)c(C)c1-n1c(N)c(C(N)=O)c2cc(C3=CCOCC3)cnc21 [Compound 304] — lower, < 0.01 µM
- Cc1ccc(O)c(C)c1-n1c(N)c(C(N)=O)c2nc(-c3cn(C)cn3)cnc21 [Compound 76] — lower, < 0.01 µM
- Cc1ccc(O)c(C)c1-n1c(N)c(C(N)=O)c2cc(C#N)cnc21 [Compound 312] — lower, < 0.01 µM
- Cc1ccc(O)c(C)c1-n1c(N)c(C(N)=O)c2cc(C(C)C)cnc21 [Compound 138] — lower, < 0.01 µM
- Cc1ccc(O)c(C)c1-n1c(N)c(C(N)=O)c2nc(C(C)(C)F)cnc21 [Compound 178, 6-amino-2-(1-fluoro-1-methyl-ethyl)-5-(3-hydroxy-2,6-dimethyl-phenyl)pyrrolo[2,3-b]pyrazine-7-carboxamide] — lower, < 0.01 µM
- Cc1ccc(O)c(C)c1-n1c(N)c(C(N)=O)c2ncc(C#CCC3CCOCC3)nc21 [Compound 222] — lower, < 0.01 µM
- Cc1ccc(O)c(C)c1-n1c(N)c(C(N)=O)c2nc(C3CC3)c(C)nc21 [Compound 100] — lower, < 0.01 µM
- Cc1ccc(O)c(C)c1-n1c(N)c(C(N)=O)c2nc(-c3ccccn3)cnc21 [Compound 34] — lower, < 0.01 µM
- Cc1ccc(O)c(C)c1-n1c(N)c(C(N)=O)c2nc(-c3nc4ccccc4s3)cnc21 [Compound 248] — lower, < 0.01 µM
- Cc1ccc(O)c(C)c1-n1c(N)c(C(N)=O)c2nc(N3CCCCC3)cnc21 [Compound 81] — lower, < 0.01 µM
- Cc1ccc(O)c(C)c1-n1c(N)c(C(N)=O)c2nc(-c3ccnnc3)cnc21 [Compound 250] — lower, < 0.01 µM
- Cc1ccc(O)c(C)c1-n1c(N)c(C(N)=O)c2nc(N3CCC(C(=O)N(C)C)CC3)cnc21 [Compound 80] — lower, < 0.01 µM
- Cc1ccc(O)c(C)c1-n1c(N)c(C(N)=O)c2ncc(C#CC3(O)CCOCC3)nc21 [Compound 231] — lower, < 0.01 µM
- Cc1ccc(O)c(C)c1-n1c(N)c(C(N)=O)c2cccnc21 [Compound 328] — lower, < 0.01 µM
- Cc1ccc(O)c(C)c1-n1c(N)c(C(N)=O)c2cc(N3CCCC3=O)cnc21 [Compound 298] — lower, < 0.01 µM
- CC(=O)N1CCN(c2cnc3c(n2)c(C(N)=O)c(N)n3-c2c(C)ccc(O)c2C)CC1 [Compound 87] — lower, < 0.01 µM
- Cc1ccc2c(C(N)=O)c(N)n(-c3c(C)ccc(O)c3C)c2n1 [Compound 193] — lower, < 0.01 µM
- Cc1ccc(O)c(C)c1-n1c(N)c(C(N)=O)c2cc(-c3ccccn3)cnc21 [Compound 295] — lower, < 0.01 µM
- Cc1ccc(O)c(C)c1-n1c(N)c(C(N)=O)c2ncc(C#CC3OCCC3Cl)nc21 (centres unmarked) [Compound 233] — 2.4-fold lower, 0.01 µM
- Cc1ccc(O)c(C)c1-n1c(N)c(C(N)=O)c2nc(C3=CCCCC3)cnc21 [Compound 86] — lower, < 0.01 µM
- CNC(=O)C1CCN(c2cnc3c(n2)c(C(N)=O)c(N)n3-c2c(C)ccc(O)c2C)CC1 [Compound 46, 6-amino-5-(3-hydroxy-2,6-dimethyl-phenyl)-2-[4-(methylcarbamoyl)-1-piperidyl]pyrrolo[2,3-b]pyrazine-7-carboxamide] — lower, < 0.01 µM
- Cc1ccc(O)c(C)c1-n1c(N)c(C(N)=O)c2nc(N3CC4CCC(C3)O4)cnc21 [Compound 92] — lower, < 0.01 µM
- Cc1ccc(O)c(C)c1-n1c(N)c(C(N)=O)c2c(Cl)c(Cl)cnc21 [Compound 316] — lower, < 0.01 µM
- Cc1ccc(O)c(C)c1-n1c(N)c(C(N)=O)c2nc(C3=CCC(C(=O)N(C)C)CC3)cnc21 (centres unmarked) [Compound 58] — lower, < 0.01 µM
- Cc1ccc(O)c(C)c1-n1c(N)c(C(N)=O)c2cc(C(C)(C)O)cnc21 [Compound 131] — lower, < 0.01 µM
- Cc1ccc(O)c(C)c1-n1c(N)c(C(N)=O)c2c(C)c(Cl)cnc21 [Compound 313] — lower, < 0.01 µM
- CCN(CC)c1cnc2c(n1)c(C(N)=O)c(N)n2-c1c(C)ccc(O)c1C [Compound 88] — lower, < 0.01 µM
- Cc1ccc(O)c(C)c1-n1c(N)c(C(N)=O)c2cc(S(=O)(=O)C3CC3)cnc21 [Compound 311] — lower, < 0.01 µM
- Cc1c(O)ccc(Cl)c1-n1c(N)c(C(N)=O)c2nc(-c3nccs3)cnc21 [Compound 42] — lower, < 0.01 µM
- Cc1ccc(O)c(C)c1-n1cc(C(N)=O)c2cc(C3CC3)cnc21 [Compound 143] — lower, < 0.01 µM
- Cc1ccc(O)c(C)c1-n1c(N)c(C(N)=O)c2nc(C(N)=O)cnc21 [Compound 220, 6-amino-5-(3-hydroxy-2,6-dimethyl-phenyl)pyrrolo[2,3-b]pyrazine-2,7-dicarboxamide] — lower, < 0.01 µM
- Cc1ccc(O)c(C)c1-n1c(N)c(C(N)=O)c2nc(C3(C(F)(F)F)CC3)cnc21 [Compound 198, 6-amino-5-(3-hydroxy-2,6-dimethyl-phenyl)-2-[1-(trifluoromethyl)cyclopropyl]pyrrolo[2,3-b]pyrazine-7-carboxamide] — lower, < 0.01 µM
- Cc1ccc(O)c(C)c1-n1c(N)c(C(N)=O)c2ncc(C#CC3(O)CCC(F)(F)CC3)nc21 [Compound 242, 6-amino-3-[2-(4,4-difluoro-1-hydroxy-cyclohexyl)ethynyl]-5-(3-hydroxy-2,6-dimethyl-phenyl)pyrrolo[2,3-b]pyrazine-7-carboxamide] — lower, < 0.01 µM
- Cc1ccc(O)c(C)c1-n1c(N)c(C(N)=O)c2nc(-c3ccns3)cnc21 [Compound 41] — lower, < 0.01 µM
- Cc1ccc(O)c(C)c1-n1c(N)c(C(N)=O)c2ncc(C#CC3OCCC3O)nc21 (centres unmarked) [Compound 234] — 1.7-fold lower, 0.014 µM
- Cc1ccc(O)c(C)c1-n1c(N)c(C(N)=O)c2ncc(C#CC(C)O)nc21 (centres unmarked) [Compound 229] — 2.2-fold higher, 0.052 µM
- Cc1ccc(O)c(C)c1-n1c(N)c(C(N)=O)c2nc(-c3ccnc(C(F)(F)F)c3)cnc21 [Compound 35, 6-amino-5-(3-hydroxy-2,6-dimethyl-phenyl)-2-[2-(trifluoromethyl)-4-pyridyl]pyrrolo[2,3-b]pyrazine-7-carboxamide] — lower, < 0.01 µM
- COCCOCC#Cc1cnc2c(n1)c(-c1c(C)ccc(O)c1C)c(N)n2C(N)=O [Compound 240] — 8-fold higher, 0.191 µM
- Cc1ccc(O)c(C)c1-n1c(N)c(C(N)=O)c2cc(Br)cnc21 [Compound 141] — lower, < 0.01 µM
- Cc1ccc(O)c(Br)c1-n1c(N)c(C(N)=O)c2cc(Cl)cnc21 [Compound 289] — lower, < 0.01 µM
- Cc1ccc(O)c(C)c1-n1c(N)c(S(C)(=O)=O)c2nc(-c3cnccn3)cnc21 [Compound 278] — higher, > 5 µM
- Cc1ccc(O)c(C)c1-n1c(N)c(C(N)=O)c2cc(I)cnc21 [Compound 319] — lower, < 0.01 µM
- Cc1ccc(O)c(C)c1-n1c(N)c(C(N)=O)c2nc(N3CCCC3)cnc21 [Compound 85] — lower, < 0.01 µM
- Cc1nc2c(C(N)=O)c(N)n(-c3c(Cl)ccc(O)c3C)c2nc1C [Compound 168] — lower, < 0.01 µM
- Cc1ccc(O)c(C)c1-n1c(N)c(C(N)=O)c2cc(-c3nccs3)cnc21 [Compound 308] — lower, < 0.01 µM
- C=C(C)c1cnc2c(n1)c(C(N)=O)c(N)n2-c1c(C)ccc(O)c1C [Compound 202] — lower, < 0.01 µM
- Cc1ccc(O)c(C)c1-n1c(N)c(C(N)=O)c2cc(Br)c(C)nc21 [Compound 187] — lower, < 0.01 µM
- Cc1ccc(O)c(C)c1-n1c(N)c(C(N)=O)c2nc(-c3nc(C)c(C)s3)cnc21 [Compound 32] — lower, < 0.01 µM
- Cc1ccc(O)c(C)c1-n1c(N)c(C(N)=O)c2nc(-c3cncs3)cnc21 [Compound 37] — lower, < 0.01 µM
- C=Cc1cnc2c(n1)c(C(N)=O)c(N)n2-c1c(C)ccc(O)c1C [Compound 259] — lower, < 0.01 µM
- Cc1ccc(O)c(C)c1-n1c(N)c(C(N)=O)c2nc(-c3ccc(F)cn3)cnc21 [Compound 64] — lower, < 0.01 µM
- Cc1ccc(O)c(C)c1-n1c(N)c(C(N)=O)c2cc(Br)c(C)nc21 (single isomer, unassigned) [Compound 189] — 42-fold higher, 1.01 µM
- Cc1ccc(O)c(C)c1-n1c(N)c(C(N)=O)c2nc3c(nc21)CCCC3 [Compound 262] — lower, < 0.01 µM
- Cc1ccc(O)cc1-n1c(N)c(C(N)=O)c2nc(C3=CCCN(C(=O)OC(C)(C)C)C3)ccc21 [Compound 26] — 83-fold higher, 2 µM
